Test results from patent US20120028990A1, “3 ARYL OR HETEROARYL-SUBSTITUTED INDOLE DERIVATIVE” (MSD K.K, priority 2010, published 2012).

Biological target: T1, human QRFP receptor (GPR103) (Homo sapiens, UniProt Q96P65)
T1 construct: expressed in transfected cells; host or cells: CHO-K1 NFAT beta-lactamase (Aurora); membrane sample
T1 sequence (Q96P65 1-431): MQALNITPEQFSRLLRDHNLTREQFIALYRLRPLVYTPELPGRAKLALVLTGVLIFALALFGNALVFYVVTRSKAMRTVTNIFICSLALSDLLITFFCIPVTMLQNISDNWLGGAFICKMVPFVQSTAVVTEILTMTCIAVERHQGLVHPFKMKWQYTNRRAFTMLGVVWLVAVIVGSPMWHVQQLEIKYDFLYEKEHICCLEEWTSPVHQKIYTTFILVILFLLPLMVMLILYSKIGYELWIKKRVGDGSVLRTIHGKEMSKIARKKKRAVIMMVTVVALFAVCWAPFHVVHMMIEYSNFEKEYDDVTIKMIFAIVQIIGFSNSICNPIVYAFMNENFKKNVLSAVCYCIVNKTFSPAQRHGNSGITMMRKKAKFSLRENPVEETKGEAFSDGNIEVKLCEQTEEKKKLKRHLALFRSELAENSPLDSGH
Assay: QRFP43-binding inhibitory test
Settings: inhibition of specific [125I]QRFP43 binding; membranes of CHO-K1 cells expressing GPR103; 25° C., 1 hour
Text: A cDNA sequence [Accession No. NM_198179] coding for a human QRFP receptor (GPR103) was cloned in an expression vector pEF1V5-HisB (by Invitrogen). The resulting expression vector was transfected in a host cell CHO-K1 NFAT (3-Lactamase (by Aurora), according to a cationic lipid process [see Proceedings of the National Academy of Sciences of the United States of America, Vol. 84, p. 7413, 1987], thereby producing a QRFP receptor (GPR103).
A membrane sample prepared from the cells having expressed a QRFP receptor (GPR103) was incubated in an assay buffer (50 mM Tris-HCl, 1 mM EDTA and 0.1% BSA, pH 7.4) along with a test compound and 20,000 cpm [^125I] QRFP43 (by Perkin Elmer) therein, at 25° C. for 1 hour, and then filtered through a glass filter GF/C. After washed with 50 mM Tris-HCl (containing 2 mM EDTA, 10 mM MgCl2 and 0.04% Tween-20) buffer (pH 7.4), the radioactivity on the glass filter was determined. The non-specific binding was determined in the presence of 1 μM peptide QRFP43, and the 50% inhibitory concentration (IC50) of the test compound to the specific [^125I] QRFP43 binding was computed [see Endocrinology, Vol. 131, p. 2090, 1992].

Row | Compound | IC50 [nM]
1 | CN1CC[C@H]2C[C@H](NC(=O)c3[nH]c4ccc(Cl)cc4c3-c3ccoc3)CC[C@@H]2C1 (single isomer, unassigned) [Example 7, 5-chloro-3-(3-fury)-N-(2-methyldecahydroisoquinolin-6-yl)-1H-indole-2-carboxamide] | 9.82
2 | CN1CC[C@H]2C[C@H](NC(=O)c3cc4cc(Cl)ccc4n3C)CC[C@@H]2C1 (single isomer, unassigned) [Reference example 1, 5-chloro-1-methyl-N-(2-methyldecahydroisoquinolin-6-yl)-1H-indole-2-carboxamide] | 22.6
3 | CN1CCN(CCNC(=O)c2[nH]c3ccc(Cl)cc3c2-c2cscn2)CC1 [Example 4, 5-chloro-N-[2-(4-methylpiperazin-1-yl)ethyl]-3-(1,3-thiazol-4-yl)-1H-indole-2-carboxamide] | 14.2
4 | CN1CCN(CCNC(=O)c2[nH]c3ccc(Cl)cc3c2-c2ccsc2)CC1 [Example 2, 5-chloro-N-[2-(4-methylpiperazin-1-yl)ethyl]-3-(3-thienyl)-1H-indole-2-carboxamide] | 4.71
5 | CN1CCN(CCNC(=O)c2[nH]c3ccc(Cl)cc3c2-c2cccs2)CC1 [Example 3, 5-chloro-N-[2-(4-methylpiperazin-1-yl)ethyl]-3-(2-thienyl)-1H-indole-2-carboxamide] | 4.68

Other lines, results leading:

Row | IC50 [nM] | Compound
6 | 0.58 | O=C(NCCCCC(c1ccco1)N1CCCC1)c1[nH]c2ccc(Cl)cc2c1-c1ccoc1 (racemic) [Example 8, 5-chloro-3-(3-fury)-N-[5-(2-furyl)-5-pyrrolidin-1-ylpentyl]-1H-indole-2-carboxamide]
7 | 2.26 | CN1CCN(CCNC(=O)c2[nH]c3ccc(Cl)cc3c2-c2ccoc2)CC1 [Example 1, 5-chloro-3-(3-fury)-N-[2-(4-methylpiperazin-1-yl)ethyl]-1H-indole-2-carboxamide]
8 | 1.06 | CNC(CCCCNC(=O)c1[nH]c2ccccc2c1-c1ccoc1)c1ccccn1 (single isomer, unassigned) [Example 9, 3-(3-fury)-N-[5-(methylamino)-5-pyridin-2-ylpentyl]-1H-indole-2-carboxamide]
9 | 11.4 | CN1CCN(CCNC(=O)c2[nH]c3ccc(Cl)cc3c2-c2ccccc2)CC1 [Example 5, 5-chloro-N-[2-(4-methylpiperazin-1-yl)ethyl]-3-phenyl-1H-indole-2-carboxamide]
10 | 6.24 | CN1CCC(CCNC(=O)c2[nH]c3ccc(Cl)cc3c2-c2ccoc2)CC1 [Example 6, 5-chloro-3-(3-fury)-N-[2-(1-methylpiperidin-4-yl)ethyl]-1H-indole-2-carboxamide]
